Assay results: PubChem BioAssay AID449772 (The Scripps Research Institute Molecular Screening Center, 2010)
The source made the active and inactive calls.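 Rule for the calls: active = mass spectrometry shows the compound covalently bound to the catalytic cysteine of glutathione transferase omega 1; inactive = no covalent bond to that cysteine seen.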

Biological target: Glutathione S-transferase omega-1 (Homo sapiens) (UniProt P78417)
Experiment: GSTO1 catalytic cysteine binding mode – biophysical, LC-MS/MS, mechanism study, late-stage follow-up (AID 449772)
Settings: purified GSTO1, LC-MS/MS active-site cysteine labeling

Chain of Glutathione S-transferase omega-1 (Homo sapiens) (P78417 whole entry, looked up): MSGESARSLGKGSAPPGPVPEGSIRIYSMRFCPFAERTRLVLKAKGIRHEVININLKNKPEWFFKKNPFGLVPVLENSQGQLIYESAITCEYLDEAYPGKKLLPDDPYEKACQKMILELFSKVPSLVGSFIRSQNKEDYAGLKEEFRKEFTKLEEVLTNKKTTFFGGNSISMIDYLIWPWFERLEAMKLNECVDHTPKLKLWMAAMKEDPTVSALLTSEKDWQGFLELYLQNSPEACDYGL

Row | outcome | Structure (SMILES)
1 | active | O=C(NC1CCCCC1)C(c1cccnc1)N(C(=O)CCl)c1ccc(F)cc1 (configuration not stated)
2 | active | COc1ccc(C(C(=O)NC2CCCCC2)N(C(=O)CCl)c2cccc(Cl)c2)cc1 (configuration not stated)
